Counter-ions that a name gives are not always drawn.
What was measured:
primary neurons [1] = assay: TMRM fluorescence assay of inner mitochondrial membrane potential (ΔΨm); conditions: for TMRM Primary: primary screen; for TMRM Primary / hit in TMRM primary screen when assayed at 4 h: 12.5 μM; for Emax / EC50: Mus musculus, Primary neuron; for Emax: read-out: TMRM (Effect-size); for EC50: read-out: TMRM-EC50
Protocol: Mitochondrial dyes. To assay the electrochemical potential across the inner mitochondrial membrane of cultured cells, we used the cell-permeant dye tetramethylrhodamine methyl ester (TMRM). For co-localization studies with Mt-GFP, TMRM was used at 20 nM on DIV14 and incubated for 30 min prior to imaging. For the orthogonal screen of compounds, TMRM was added to primary neurons on DIV13 at 10 nM, one hr prior to pintooling selected compounds, and incubated for 24 hr. Cells were washed 2× with pre-warmed fresh feeding media without B27 before measurements with a plate reader.
(§1) A CLARIOstar (BMG LABTECH) microplate reader was used to measure fluorescence of TMRM and luminescence produced from the ATP.
(§2) Mitochondrial membrane potential (Δψm) and luminescence-based ATP assays. […] Changes of ΔΨm in each well were monitored using the mitochondrial-specific, fluorescent dye TMRM (tetramethyl rhodamine, methyl ester; Molecular Probes) and measured using a CLARIOstar plate reader. […] This concentration was used throughout our experiments. […] Wells in columns 1 and 24 were not loaded with TMRM; these served to measure background signal which was subtracted from the wells to which TMRM was added. To measure the total ATP levels in neurons we utilized the CellTiter-Glo® luminescence-based ATP assay (Promega). DIV13 primary neurons were cultured for 24 h with either DMSO carrier or compound treatment, followed by removing 55 μl culture medium from each well. Plates were maintained at room temperature for 25 m, and 25 μl of CellTiter-Glo® Reagent with the substrate luciferin was then added to each well (Promega). Plates were covered with aluminum foil and shaken vigorously on an orbital shaker for 10 m at 200 rpm and maintained at room temperature for an additional 2 m in dark before being read with the plate reader set to the luminescence mode.
Compound library and hit picking rules. We screened 2400 compounds from the MicroSource Spectrum library. […] FIGS. 13A-13E provide details of the assays used from which hit picking rules were made. In essence, the average fluorescence for each compound in the TMRM assay was determined and compared to the average fluorescence for compounds in the population on each assay plate to produce a Z-score. The Z-scores for each individual compound assayed across the four replicate plates was then averaged.

primary neurons [2] = assay: CellTiter-Glo luminescence-based ATP assay; format: cell-based, mouse; conditions: for ATP: ATP orthogonal screen, 24 h; for EC50 / Emax: Mus musculus, Primary neuron, dose response; for EC50: 15 concentrations from 6 nM to 100 uM; for Emax: maximal percent increase relative to in-plate DMSO controls, read-out: ATP (Effect-size)
Protocol: Measurement of ATP production. The total amount of ATP produced by cultured primary neurons was measured by CellTiter-Glo Luminescent Cell Viability Assay (Promega). A recombinant luciferase enzyme catalyzed the mono-oxygenation of luciferin while hydrolyzing ATP produced by the cells and emitting light. We followed the manufacturer's protocol with primary neurons on DIV14.
as §1, §2
Compound library and hit picking rules. We screened 2400 compounds from the MicroSource Spectrum library. […] FIGS. 13A-13E provide details of the assays used from which hit picking rules were made. In essence, the average fluorescence for each compound in the TMRM assay was determined and compared to the average fluorescence for compounds in the population on each assay plate to produce a Z-score. The Z-scores for each individual compound assayed across the four replicate plates was then averaged. Because of significant well location effects (outer rows) on each assay plate (FIG. 13G), we selected primary hits as enhancing well fluorescence above the μplate by 3σplate for inner row wells (rows C-N, columns 3-22), and by 2.5σplate for outer row wells (rows A, B, O, P; columns 3-22) (FIG. 14C-D). […] All orthogonal assays employed inner wells of the 384-well plates.

| Compound | TMRM Primary (primary neurons [1]; 24 h) [Z-scores] | TMRM Rescreen (primary neurons [1]; 24 h) [Z-scores] | ATP (primary neurons [2]) [Z-scores] | hit in TMRM primary screen when assayed at 4 h (primary neurons [1]) | Emax (primary neurons [1]) [%] | EC50 (primary neurons [1]) [nM] | EC50 (primary neurons [2]) [nM] | Emax (primary neurons [2]) [%] | reduction of whole well TMRM fluorescence (primary neurons [1]; 50 μM, 24 h, DIV14 neuronal cultures) [%] |
| --- | --- | --- | --- | --- | --- | --- | --- | --- | --- |
| colistin sulfate | 3.27 | 5.24 | 5.48 | – | – | – | – | – | – |
| COC(=O)C1=C(C)NC(C)=C(C(=O)OCCN(C)Cc2ccccc2)C1c1cccc([N+](=O)[O-])c1 (stereo not drawn) [nicardipine hydrochloride] | 4.22 | −5.52 | −3.75 | – | – | – | – | – | – |
| c1ccc(-c2ccc(C(c3ccccc3)n3ccnc3)cc2)cc1 (stereo not drawn) [bifonazole] | 3.81 | 1.84 | 4.00 | – | – | – | – | – | – |
| CCNC1(c2cccs2)CCCCC1=O.Cl (stereo not drawn) [tiletamine hydrochloride] | 3.31 | 4.20 | 6.27 | – | – | – | – | – | – |
| COc1ccc(C(=O)/C=C/c2ccccc2)cc1 [4′-methoxychalcone] | 3.42 | 1.48 | 3.97 | – | – | – | – | – | – |
| C=C[C@@](C)(O)CC[C@H]1C(=C)C[C@H](OC(C)=O)[C@H]2C(C)(C)CCC[C@]12C [larixol acetate] | 3.96 | 5.67 | 2.67 | – | – | – | – | – | – |
| CCOC(=O)C1=C(C)NC(C)=C(C(=O)OC)C1c1cccc(Cl)c1Cl (stereo not drawn) [felodipine] | 3.80 | 2.41 | 5.08 | – | – | – | – | – | – |
| CC(=O)O[C@]1(C(C)=O)CC[C@H]2[C@@H]3C[C@H](C)C4=CC(=O)CC[C@]4(C)[C@H]3CC[C@@]21C [medroxyprogesterone acetate] | 3.66 | 3.67 | 2.64 | medroxyprogesterone acetate* | – | – | – | – | – |
| COc1cc2oc3cc(OC)c(OC)c(CC=C(C)C)c3c(=O)c2c(O)c1CC=C(C)C [1-hydroxy-3,6,7-trimethoxy-2,8-diprenylxanthone] | 3.34 | 3.27 | 5.44 | – | – | – | – | – | – |
| CN(C)CCCN1c2ccccc2Sc2ccc(Cl)cc21 [chlorpromazine] | 2.79 | 2.66 | 5.00 | – | – | – | – | – | – |
| O=C1CCc2ccc(OCCCCN3CCN(c4cccc(Cl)c4Cl)CC3)cc2N1 [aripiprazole] | 2.98 | 7.76 | 3.66 | – | – | – | – | – | – |
| COCCOC(=O)C1=C(C)NC(C)=C(C(=O)OC(C)C)C1c1cccc([N+](=O)[O-])c1 (stereo not drawn) [nimodipine] | 4.40 | 3.98 | 6.53 | – | – | – | – | – | – |
| OC(CCN1CCCC1)(c1ccccc1)C1CCCCC1 (stereo not drawn) [procyclidine hydrochloride] | 4.55 | 6.91 | 7.14 | – | 23.3 | 850 | 240 | 18.7 | – |
| OCc1c[nH]c2ccccc12 [indole-3-carbinol] | 3.15 | 6.27 | 6.52 | – | – | – | – | – | – |
| CN1CCN(CC/C=C2/c3ccccc3Sc3ccc(S(=O)(=O)N(C)C)cc32)CC1 [thiothixene] | 3.08 | 3.38 | 3.80 | – | – | – | – | – | – |
| COC(=O)C[C@H]1C(C)(C)C(=O)[C@@H]2CC3=C(CC[C@]4(C)C3=CC(=O)O[C@H]4c3ccoc3)[C@@]1(C)C2=O [carapin-8(9)-ene] | 3.50 | 3.82 | 4.89 | – | – | – | – | – | – |
| CN(C)CCC=C1c2ccccc2C=Cc2ccccc21 [cyclobenzaprine hydrochloride] | 5.52 | 4.71 | 3.49 | – | – | – | – | – | – |

| Compound | TMRM Primary (primary neurons [1]; 24 h) [Z-scores] | TMRM Rescreen (primary neurons [1]; 24 h) [Z-scores] | ATP (primary neurons [2]) [Z-scores] | hit in TMRM primary screen when assayed at 4 h (primary neurons [1]) | Emax (primary neurons [1]) [%] | EC50 (primary neurons [1]) [nM] | EC50 (primary neurons [2]) [nM] | Emax (primary neurons [2]) [%] | reduction of whole well TMRM fluorescence (primary neurons [1]; 50 μM, 24 h, DIV14 neuronal cultures) [%] |
| --- | --- | --- | --- | --- | --- | --- | --- | --- | --- |
| CN(C)CCCN1c2ccccc2Sc2ccccc21 [promazine hydrochloride] | 3.81 | 4.04 | 4.76 | – | – | – | – | – | – |
| N=c1ccn2c(n1)O[C@H]1[C@H](O)[C@@H](CO)O[C@H]12 [ancitabine hydrochloride] | 3.04 | 1.36 | 0.14 | – | – | – | – | – | – |
| COc1ccc(-c2coc3cc(O)cc(OC)c3c2=O)cc1 [5,4′-dimethoxy-7-hydroxyisoflavone] | 5.24 | 6.90 | 5.76 | – | – | – | – | – | – |
| CC(C)NCC(O)COc1cccc2ccccc12.Cl (racemic) [propranolol hydrochloride (+/−)] | 4.03 | 3.07 | 5.06 | – | – | – | – | – | – |
| COc1ccc(-n2nc(CCC(=O)N(C)O)cc2-c2ccc(Cl)cc2)cc1 [tepoxalin] | 4.36 | 3.75 | 6.89 | – | – | – | – | – | – |
| CC1(C)[C@H](O)CC(=O)[C@]2(C)[C@H]3CC[C@@]4(C)[C@H](c5ccoc5)OC(=O)[C@H]5O[C@]54[C@]3(C)C(=O)C[C@@H]12 [1,7-dideacetoxy-1,7-dioxo-3-deacetylkhivorin] | 3.65 | 4.00 | 5.46 | – | – | – | – | – | – |
| CC(C)(C)NC[C@H](O)COc1ccccc1C1CCCC1 [penbutolol sulfate] | 3.16 | 5.35 | 3.39 | – | – | – | – | – | – |
| O=C(Nc1ccccc1)OCC(CN1CCCCC1)OC(=O)Nc1ccccc1 (stereo not drawn) [diperodon hydrochloride] | 3.75 | 6.07 | 8.02 | – | – | – | – | – | – |
| CCc1nc(N)nc(N)c1-c1ccc(Cl)cc1 [pyrimethamine] | 3.43 | 4.00 | 6.54 | pyrimethamine* | – | – | – | – | – |
| CCN(CC)CC(=O)Nc1c(C)cccc1C [lidocaine hydrochloride] | 3.06 | 4.69 | 6.98 | – | 17.4 | 1890 | 110 | 15.8 | – |
| CC[C@H]1[C@@H]2C[C@H]3[C@@H]4N(C)c5ccccc5[C@]45C[C@@H]([C@H]2[C@H]5O)N3[C@@H]1O [ajmaline] | 3.76 | 6.40 | 4.76 | – | – | – | – | – | – |
| CCOC(=O)C1=C[C@]2(CC)CCCN3CCc4c(n1c1ccccc41)[C@@H]32 [vinpocetine] | 5.76 | 6.16 | 6.29 | – | – | – | – | – | – |
| COC(=O)[C@H]1[C@H]2C[C@@H]3c4[nH]c5cc(OC)ccc5c4CCN3C[C@H]2C[C@@H](OC(=O)c2cc(OC)c(OC)c(OC)c2)[C@@H]1OC [reserpine] | 7.44 | 7.89 | 5.29 | – | 22.5 | 640 | 120 | 20.5 | – |
| C[C@]12CC[C@@H]3c4ccc(O)cc4CC[C@H]3[C@@H]1CC[C@@H]2OC(=O)CCC1CCCC1 [estradiol cypionate] | 2.59 | 4.67 | 2.98 | – | – | – | – | – | – |
| CC(C)(C)OO [Peroxide, tert-butyl hydroperoxide] | – | – | – | – | – | – | – | – | ~40 |
| CNCCC(Oc1ccc(C(F)(F)F)cc1)c1ccccc1 (stereo not drawn) [fluoxetine hydrochloride] | – | – | 3.70 | – | – | – | – | – | – |
| CN1CCC[C@@H]1CCO[C@](C)(c1ccccc1)c1ccc(Cl)cc1 [clemastine fumarate] | 2.82 | 3.22 | – | – | – | – | – | – | – |

— US20230003721A1, “MITOTHERAPEUTICS FOR THE TREATMENT OF BRAIN DISORDERS” (The University of Florida Research Foundation, Inc., priority 2019, published 2023)
